Results reported in patent US8822526B2, “Synergistic pharmaceutical combination for the treatment of cancer” (Piramal Enterprises Limited, priority 2007, dated 2014).

Assays:
[1] = tested on: human non-small cell lung carcinoma H-460 cells; experiment: In vitro cytotoxicity assay (MTS); conditions: for % Cytotoxicity: then complete medium 45 hours
Method: The cytotoxicity assay used was MTS (3-(4,5-dimethylthiazol-2-yl)-5-(3-carboxymethoxyphenyl)-2-(4-sulfophenyl)-2H-tetrazolium, inner salt) assay. The human non-small cell lung carcinoma H-460 cells were seeded at a density of 1500 cells/well in 180 μL of culture medium in 96-well plate and incubated overnight to allow the cells to adhere. Varying concentrations of the drugs contained in the combination were added to the wells and incubated for an appropriate period of time in humidified 5% CO2 incubator at 37° C. in case of a single drug exposure. […] Control wells were treated with a vehicle. At the end of the incubation period, the medium was removed from the wells and 20 μL of MTS (2 mg/mL in phosphate buffer saline, pH 6-6.5 and filter sterilized) and 1 μL of phenazine methosulfate (PMS, 3 mM in phosphate buffered saline, pH 7.3 and filter sterilized) was added to each well and the total volume was adjusted to 200 μL with complete medium. The plate was incubated for 2-4 hours in humidified 5% CO2 incubator at 37° C.
(§1) After completion of the drugs treatment i.e. at the end of 96 hours the plates were processed for MTS viability assay and the percent cytotoxicity was calculated as compared to control.
as §1
(§2) The human non-small cell lung carcinoma H-460 cells were seeded at a density of 1500 cells/well. […] After completion of the drugs treatment i.e. at the end of 120 hours the plates were processed for MTS viability assay and the percent cytotoxicity was calculated as compared to control.
as §2
The human non-small cell lung carcinoma H-460 cells were seeded at a density of 1500 cells/well. […] After completion of the drugs treatment i.e. at the end of 120 hours, the plates were processed for MTS viability assay and the percent cytotoxicity was calculated as compared to control.
(§3) After completion of the drugs treatment i.e. at the end of 48 hours the plates were processed for MTS viability assay and the percent cytotoxicity was calculated as compared to control.
The plates were processed for MTS viability assay and the percent cytotoxicity was calculated as compared to control.
as §3
The human non-small cell lung carcinoma H-460 cells were seeded at a density of 1500 cells/well. As per Table 16A the cells were first treated with either of the drugs alone i.e. with doxorubicin or flavopiridol alone. Doxorubicin treatment was for the first 24 hours followed by complete medium for 96 hours while in case of flavopiridol, the first 24 hours was in complete medium followed by flavopiridol for the next 96 hours. […] After completion of the drugs treatment i.e. at the end of 120 hours the plates were processed for MTS viability assay and the percent cytotoxicity was calculated as compared to control.
As per Table 16B the cells were first treated with either of the drugs alone i.e. with doxorubicin or flavopiridol alone. Flavopiridol treatment was for the first 96 hours followed by complete medium for 24 hours while in case of doxorubicin, the first 96 hours was in complete medium followed by doxorubicin for 24 hours. […] After completion of the drugs treatment i.e. at the end of 120 hours, the plates were processed for MTS viability assay and the percent cytotoxicity was calculated as compared to control.
The human non-small cell lung carcinoma H-460 cells were seeded at a density of 1500 cells/well.

[2] = tested on: human pancreatic (Panc-1) cell line; experiment: In vitro cytotoxicity assay (MTS); assay type: cell-based; conditions: then complete medium 72 hours
[3] = tested on: pancreatic cells (Panc-1); experiment: Analysis of cell cycle distribution and flow cytometry (sub G1 apoptosis); assay type: cell-based, human; conditions: FIG. 3: 70 nM gemcitabine alone (24 hours); 300 nM compound A alone (72 hours); combination 70 nM gemcitabine (24 hours) followed by 300 nM compound A (72 hours)

CC(=O)O[C@@]12CO[C@@H]1C[C@H](O)[C@@]1(C)C(=O)[C@H](O)C3=C(C)[C@@H](OC(=O)[C@H](O)[C@@H](NC(=O)OC(C)(C)C)c4ccccc4)C[C@@](O)([C@@H](OC(=O)c4ccccc4)[C@H]21)C3(C)C [Docetaxel]
% Cytotoxicity ([1]; Docetaxel 0.1 nM first 3 hours, 3000 cells/well): 0% | % Cytotoxicity ([1]; Docetaxel 3 nM first 3 hours, 3000 cells/well): 2%

CN1CC[C@H](c2c(O)cc(O)c3c(=O)cc(-c4ccccc4Cl)oc23)[C@H](O)C1 [Flavopiridol]
IC30 concentration after 48 hours treatment ([1]; H-460 cells, 48 hours treatment): 200 nM | IC50 ([1]; Homo sapiens, NCI-H460, 48 h, read-out: IC50 concentration after 48 hours treatment, H-460 cells, 48 hours treatment): 350 nM | cytotoxicity at 0.2 µM ([1]; Homo sapiens, NCI-H460, 120 h, Flavopiridol 200 nM alone for 120 hours): 39% | cytotoxicity at 0.35 µM ([1]; Homo sapiens, NCI-H460, 120 h, Flavopiridol 350 nM alone for 120 hours): 81%

Nc1ccn([C@@H]2O[C@H](CO)[C@@H](O)C2(F)F)c(=O)n1 [Gemcitabine, 2′-deoxy-2′,2′-difluorocytidine]
% Cytotoxicity ([2]; Gemcitabine 30 nM first 24 hours): 2% | % Cytotoxicity ([2]; Gemcitabine 70 nM first 24 hours): 18% | % Cytotoxicity ([2]; Gemcitabine 100 nM first 24 hours): 38% | % Cytotoxicity ([2]; Gemcitabine 200 nM first 24 hours): 78% | apoptosis (sub G1 phase) [3]: 1.7%

CC(=O)O[C@H]1C(=O)[C@@]2(C)[C@H]([C@H](OC(=O)c3ccccc3)[C@]3(O)C[C@H](OC(=O)[C@H](O)[C@@H](NC(=O)c4ccccc4)c4ccccc4)C(C)=C1C3(C)C)[C@]1(OC(C)=O)CO[C@@H]1C[C@@H]2O [Paclitaxel]
% Cytotoxicity ([1]; Paclitaxel 10 nM first 3 hours, 1500 cells/well): 10%
